Patent publication US20230148251A1, “COMPOUND NUTRIENT CAPABLE OF REPAIRING DAMAGED INTESTINES OF PIGELETS AND METHOD OF USING THE SAME” (Sichuan Agricultural University, priority 2021, published 2023)

How the values were obtained:
[1] = system: low-birth-weight suckling piglets; experiment: Arginine supplementation: growth performance of low-birth-weight suckling piglets; assay type: in vivo; conditions: 0.04% arginine in feed vs without
Source text: Three-day-old suckling piglets with low birth weight were used as experimental animals. They were randomly divided into two treatments, fed with 0.04% and without arginine feed. Each treatment had 8 replicates, and each replicate had 1 piglet. The test period was 21 days to investigate the growth performance of piglets.

[2] = system: low-birth-weight suckling piglets; experiment: Arginine supplementation: serum antioxidant enzyme activity and MDA content; assay type: in vivo; conditions: 0.04% arginine in feed vs without
Source text: Three-day-old suckling piglets with low birth weight were used as experimental animals. They were randomly divided into two treatments, fed with 0.04% and without arginine feed. Each treatment had 8 replicates, and each replicate had 1 piglet. The test period was 21 days. After the test, the piglet serum was collected to investigate the antioxidant capacity of the piglet serum.

N=C(N)NCCC[C@H](N)C(=O)O [Arginine Group, arginine]
significantly improve: daily gain of weak piglets (in words) [1] | feed intake of weak piglets (in words) [1] | antioxidant capacity of weak piglets (in words) [2]
